# Test results: ChEMBL document CHEMBL1142214, “Synergistic interaction between phenothiazines and antimicrobial agents against Burkholderia pseudomallei” (2007)
# Columns and labels:
# Assay type in all cases: functional
# [1] = tested on: Burkholderia pseudomallei; experiment: Antimicrobial activity against Burkholderia pseudomallei KHW in presence of 500 uM omeprazole
# [2] = tested on: Burkholderia pseudomallei; experiment: Antimicrobial activity against Burkholderia pseudomallei KHW in presence of 3.9 uM chlorpromazine
# [3] = tested on: Burkholderia pseudomallei; experiment: Antimicrobial activity against Burkholderia pseudomallei KHW in presence of 250 uM omeprazole
# [4] = tested on: Burkholderia pseudomallei; experiment: Antimicrobial activity against Burkholderia pseudomallei KHW in presence of 125 uM promazine
# [5] = tested on: Burkholderia pseudomallei; experiment: Antimicrobial activity against Burkholderia pseudomallei KHW in presence of 3.9 uM promazine
# [6] = tested on: Burkholderia pseudomallei; experiment: Antimicrobial activity against Burkholderia pseudomallei KHW in presence of 15.6 uM promazine
# [7] = tested on: Burkholderia pseudomallei; experiment: Antimicrobial activity against Burkholderia pseudomallei KHW in presence of 3.9 uM omeprazole
# [8] = tested on: Burkholderia pseudomallei; experiment: Antimicrobial activity against Burkholderia pseudomallei KHW in presence of 500 uM prochlorperazine
# [9] = tested on: Burkholderia pseudomallei; experiment: Antimicrobial activity against Burkholderia pseudomallei KHW in presence of 31.3 uM chlorpromazine
# [10] = tested on: Burkholderia pseudomallei; experiment: Antimicrobial activity against Burkholderia pseudomallei KHW in presence of 15.6 uM prochlorperazine
# [11] = tested on: Burkholderia pseudomallei; experiment: Antimicrobial activity against Burkholderia pseudomallei KHW in presence of 62.5 uM chlorpromazine
# [12] = tested on: Burkholderia pseudomallei; experiment: Antimicrobial activity against Burkholderia pseudomallei KHW in presence of 1000 uM chlorpromazine
# [13] = tested on: Burkholderia pseudomallei; experiment: Antimicrobial activity against Burkholderia pseudomallei KHW in presence of 15.6 uM chlorpromazine
# [14] = tested on: Burkholderia pseudomallei; experiment: Antimicrobial activity against Burkholderia pseudomallei KHW in presence of 125 uM prochlorperazine
# [15] = tested on: Burkholderia pseudomallei; experiment: Antimicrobial activity against Burkholderia pseudomallei KHW in presence of 7.8 uM omeprazole
# [16] = tested on: Burkholderia pseudomallei; experiment: Antimicrobial activity against Burkholderia pseudomallei KHW in presence of 125 uM chlorpromazine
# [17] = tested on: Burkholderia pseudomallei; experiment: Antimicrobial activity against Burkholderia pseudomallei KHW in presence of 7.8 uM prochlorperazine
# [18] = tested on: Burkholderia pseudomallei; experiment: Antimicrobial activity against Burkholderia pseudomallei KHW in presence of 31.3 uM promazine
# [19] = tested on: Burkholderia pseudomallei; experiment: Antimicrobial activity against Burkholderia pseudomallei KHW in presence of 250 uM promazine
# [20] = tested on: Burkholderia pseudomallei; experiment: Antimicrobial activity against Burkholderia pseudomallei KHW in presence of 250 uM prochlorperazine
# [21] = tested on: Burkholderia pseudomallei; experiment: Antimicrobial activity against Burkholderia pseudomallei KHW in presence of 1000 uM promazine
# [22] = tested on: Burkholderia pseudomallei; experiment: Antimicrobial activity against Burkholderia pseudomallei KHW in presence of 500 uM chlorpromazine
# [23] = tested on: Burkholderia pseudomallei; experiment: Antimicrobial activity against Burkholderia pseudomallei KHW in presence of 31.3 uM omeprazole
# [24] = tested on: Burkholderia pseudomallei; experiment: Antimicrobial activity against Burkholderia pseudomallei KHW in presence of 7.8 uM chlorpromazine
# [25] = tested on: Burkholderia pseudomallei; experiment: Antimicrobial activity against Burkholderia pseudomallei KHW in presence of 3.9 uM prochlorperazine
# [26] = tested on: Burkholderia pseudomallei; experiment: Antimicrobial activity against Burkholderia pseudomallei KHW
# [27] = tested on: Burkholderia pseudomallei; experiment: Antimicrobial activity against Burkholderia pseudomallei KHW in presence of 500 uM promazine
# [28] = tested on: Burkholderia pseudomallei; experiment: Antimicrobial activity against Burkholderia pseudomallei KHW in presence of 7.8 uM promazine
# [29] = tested on: Burkholderia pseudomallei; experiment: Antimicrobial activity against Burkholderia pseudomallei KHW in presence of 31.3 uM prochlorperazine
# [30] = tested on: Burkholderia pseudomallei; experiment: Antimicrobial activity against Burkholderia pseudomallei KHW in presence of 62.5 uM omeprazole
# [31] = tested on: Burkholderia pseudomallei; experiment: Antimicrobial activity against Burkholderia pseudomallei KHW in presence of 125 uM omeprazole
# [32] = tested on: Burkholderia pseudomallei; experiment: Antimicrobial activity against Burkholderia pseudomallei KHW in presence of 250 uM chlorpromazine
# [33] = tested on: Burkholderia pseudomallei; experiment: Antimicrobial activity against Burkholderia pseudomallei KHW in presence of 15.6 uM omeprazole
# [34] = tested on: Burkholderia pseudomallei; experiment: Antimicrobial activity against Burkholderia pseudomallei KHW in presence of 1000 uM omeprazole
# [35] = tested on: Burkholderia pseudomallei; experiment: Antimicrobial activity against Burkholderia pseudomallei KHW in presence of 62.5 uM prochlorperazine
# [36] = tested on: Burkholderia pseudomallei; experiment: Antimicrobial activity against Burkholderia pseudomallei KHW in presence of 1000 uM prochlorperazine
# [37] = tested on: Burkholderia pseudomallei; experiment: Antimicrobial activity against Burkholderia pseudomallei KHW in presence of 62.5 uM promazine
SMILES,MIC [2] [µg/mL],MIC [4] [µg/mL],MIC [5] [µg/mL],MIC [6] [µg/mL],MIC [7] [µg/mL],MIC [8] [µg/mL],MIC [9] [µg/mL],MIC [10] [µg/mL],MIC [11] [µg/mL],MIC [12] [µg/mL],MIC [13] [µg/mL],MIC [14] [µg/mL],MIC [15] [µg/mL],MIC [16] [µg/mL],MIC [17] [µg/mL],MIC [18] [µg/mL],MIC [20] [µg/mL],MIC [21] [µg/mL],MIC [22] [µg/mL],MIC [23] [µg/mL],further results
CC[C@H]1OC(=O)[C@H](C)[C@@H](O[C@H]2C[C@@](C)(OC)[C@@H](O)[C@H](C)O2)[C@H](C)[C@@H](O[C@@H]2O[C@H](C)C[C@H](N(C)C)[C@H]2O)[C@](C)(O)C[C@@H](C)CN(C)[C@H](C)[C@@H](O)[C@]1(C)O [AZITHROMYCIN],32,32,32,32,32,< 0.25,32,32,32,< 0.25,32,16,32,16,32,32,< 0.25,< 0.25,8,32,MIC [1]: 16 µg/mL; MIC [3]: 32 µg/mL; MIC [19]: 32 µg/mL; MIC [24]: 32 µg/mL; MIC [25]: 32 µg/mL; MIC [26]: 32 µg/mL; MIC [27]: 16 µg/mL; MIC [28]: 32 µg/mL; MIC [29]: 32 µg/mL; MIC [30]: 32 µg/mL; MIC [31]: 32 µg/mL; MIC [32]: 16 µg/mL; MIC [33]: 32 µg/mL; MIC [34]: 16 µg/mL; MIC [35]: 32 µg/mL; MIC [36]: < 0.25 µg/mL; MIC [37]: 32 µg/mL
C[C@H]1COc2c(N3CCN(C)CC3)c(F)cc3c(=O)c(C(=O)O)cn1c23.C[C@H]1COc2c(N3CCN(C)CC3)c(F)cc3c(=O)c(C(=O)O)cn1c23.O [LEVOFLOXACIN],2,2,2,2,2,< 0.25,2,2,2,< 0.25,2,2,2,2,2,2,2,< 0.25,< 0.25,2,MIC [1]: 2 µg/mL; MIC [3]: 2 µg/mL; MIC [19]: 2 µg/mL; MIC [24]: 2 µg/mL; MIC [25]: 2 µg/mL; MIC [26]: 2 µg/mL; MIC [28]: 2 µg/mL; MIC [29]: 2 µg/mL; MIC [30]: 2 µg/mL; MIC [31]: 2 µg/mL; MIC [33]: 2 µg/mL; MIC [35]: 2 µg/mL; MIC [36]: < 0.25 µg/mL; MIC [37]: 2 µg/mL
CO[C@H]1C[C@H](O[C@H]2[C@H](C)[C@@H](O[C@@H]3O[C@H](C)C[C@H](N(C)C)[C@H]3O)[C@@H](C)C[C@@]3(CO3)C(=O)[C@H](C)[C@@H](O)[C@@H](C)[C@@H](C)OC(=O)[C@@H]2C)O[C@@H](C)[C@@H]1O [OLEANDOMYCIN],> 2000,> 2000,> 2000,> 2000,> 2000,64,> 2000,512,1020,< 0.25,> 2000,256,> 2000,512,> 2000,> 2000,128,0.5,128,> 2000,MIC [1]: > 2000 µg/mL; MIC [3]: > 2000 µg/mL; MIC [19]: > 2000 µg/mL; MIC [24]: > 2000 µg/mL; MIC [25]: > 2000 µg/mL; MIC [26]: > 2000 µg/mL; MIC [27]: 256 µg/mL; MIC [28]: > 2000 µg/mL; MIC [29]: 512 µg/mL; MIC [30]: > 2000 µg/mL; MIC [31]: > 2000 µg/mL; MIC [32]: 256 µg/mL; MIC [33]: > 2000 µg/mL; MIC [34]: < 0.25 µg/mL; MIC [35]: 256 µg/mL; MIC [36]: 64 µg/mL; MIC [37]: > 2000 µg/mL
CN[C@@H]1[C@H](O)[C@H](NC)[C@H]2O[C@@]3(O)C(=O)C[C@@H](C)O[C@H]3O[C@@H]2[C@H]1O [SPECTINOMYCIN],256,256,256,256,256,< 0.25,256,256,256,< 0.25,256,32,256,256,256,256,32,< 0.25,32,256,MIC [24]: 256 µg/mL; MIC [25]: 256 µg/mL; MIC [26]: 256 µg/mL; MIC [28]: 256 µg/mL; MIC [29]: 256 µg/mL; MIC [30]: 256 µg/mL; MIC [31]: 256 µg/mL; MIC [32]: 128 µg/mL; MIC [33]: 256 µg/mL; MIC [34]: 32 µg/mL; MIC [35]: 128 µg/mL; MIC [36]: < 0.25 µg/mL; MIC [37]: 256 µg/mL
CN[C@@H]1[C@H](O[C@H]2[C@H](O[C@H]3[C@H](O)[C@@H](O)[C@H](N=C(N)N)[C@@H](O)[C@@H]3N=C(N)N)O[C@@H](C)[C@]2(O)C=O)O[C@@H](CO)[C@H](O)[C@H]1O [STREPTOMYCIN],1020,1020,1020,1020,1020,256,1020,1020,1020,< 0.25,1020,1020,1020,1020,1020,1020,512,0.5,< 0.25,1020,MIC [1]: 1020 µg/mL; MIC [3]: 1020 µg/mL; MIC [19]: 1020 µg/mL; MIC [24]: 1020 µg/mL; MIC [25]: 1020 µg/mL; MIC [26]: 1020 µg/mL; MIC [27]: 516 µg/mL; MIC [28]: 1020 µg/mL; MIC [29]: 1020 µg/mL; MIC [30]: 1020 µg/mL; MIC [31]: 1020 µg/mL; MIC [32]: 1020 µg/mL; MIC [33]: 1020 µg/mL; MIC [34]: < 0.25 µg/mL; MIC [35]: 1020 µg/mL; MIC [36]: 256 µg/mL; MIC [37]: 1020 µg/mL
